Data on nine molecules can be found in US20060183922A1, “CB2-selective cannabinoid derivatives” (priority 2005, published 2006).

One assay concerns the target CB2 receptor (Homo sapiens, UniProt P34972). As to conditions: read-out: Ki for the CB2 receptor; Huffman et al., Biorg. Med. Chem. 1999; cited from earlier work.
Assay [1] has as its target T1, human CB2 receptor (transfected human embryonic kidney 293 cells) (Homo sapiens, UniProt P34972).
T1 construct: expressed in transfected cells
The assay can be described thus: CB2 receptor binding assay, [3H]CP-55,940 displacement. As to conditions: for Fold selectivity for CB2 over CB1: ratio of CB1 to CB2 affinity. As to the method: 2. CB2 Assay. Human embryonic kidney 293 cells were maintained in Dulbecco's modified Eagle's medium (DMEM) with 10% fetal clone II (HyClone, Logan Utah) and 5% CO2 at 37° C. in a Forma incubator. Cell lines were created by transfection of CB2pcDNA3 into 293 cells by the Lipofectamine reagent (Life Technologies, Gaithersburg, Md.). The human CB2 cDNA was a gift. Stable transformants were selected in growth medium containing geneticin (1 mg/mL, reagent, Life Technologies, Gaithersburg, Md.). Colonies of about 500 cells were picked (about 2 weeks post transfection) and allowed to expand, then tested for expression of receptor mRNA by northern blot analysis. Cell lines containing moderate to high levels of receptor mRNA were tested for receptor binding properties. Transfected cell lines were maintained in DMEM with 10% fetal clone II plus 0.3-0.5 mg/mL geneticin and 5% CO2 at 37° C. in a Forma incubator.
The current assay is a modification of Compton et al. (Compton, D. R.; Rice, K. C.; De Costa, B. R.; Razdan, R. K.; Melvin, L. S.; Johnson, M. R.; Martin, B. R. J. Pharmacol Exp. Ther. 1993, 265, 218.) Cells were harvested in phosphate-buffered saline containing 1 mM EDTA and centrifuged at 500 g. The cell pellet was homogenized in 10 mL of solution A (50 mM Tris-HCl, 320 mM sucrose, 2 mM EDTA, 5 mM MgCl2, pH 7.4). The homogenate was centrifuged at 1,600×g (10 min), the supernatant saved, and the pellet washed three times in solution A with subsequent centrifugation. The combined supernatants were centrifuged at 100,000×g (60 min). The (P2 membrane) pellet was resuspended in 3 mL of buffer B (50 mM Tris-HCl, 1 mM EDTA, 3 mM MgCl2, pH 7.4) to yield a protein concentration of approximately 1 mg/mL. The tissue preparation was divided into equal aliquots, frozen on dry ice, and stored at −70° C. Binding was initiated by the addition of 40-50 μg membrane protein to silanized tubes containing [^3H]CP-55,940 (102.9 Ci/mmol) and a sufficient volume of buffer C (50 mM Tris-HCl, 1 mM EDTA, 3 mM MgCl2, and 5 mg/mL fatty acid free BSA, pH 7.4) to bring the total volume to 0.5 mL. The addition of 1 μM unlabelled CP-55,940 was used to assess nonspecific binding. Following incubation (30° C. for 1 hour), binding was terminated by the addition of 2 mL of ice cold buffer D (50 mM Tris-HCl, pH 7.4, plus 1 mg/mL BSA) and rapid vacuum filtration through Whatman GF/C filters (pretreated with polyethyleneimine (0.1%) for at least 2 hours). Tubes were rinsed with 2 mL of ice cold buffer D, which was also filtered, and the filters subsequently rinsed twice with 4 mL of ice cold buffer D. Before radioactivity was quantitated by liquid scintillation spectrometry, filters were shaken for 1 hr in 5 mL of scintillation fluid.
CP-55,940 and all cannabinoid analogs were prepared by suspension in assay buffer from a 1 mg/mL ethanolic stock without evaporation of the ethanol (final concentration of no more than 0.4%). Competition assays were conducted with 1 nM [^3H]-CP55,940 and 6 concentrations (0.1 nM to 10 μM displacing ligands). Displacement IC50 values were originally determined by unweighted least-squares linear regression of log concentration-percent displacement data and then converted to Ki values using the method of Cheng and Prusoff(Cheng, Y. C.; Prusoff, W. H. Biochem. Pharmacol. 1973, 22, 3099.)

The next assay has as its target T2, CB1 receptor (Rattus norvegicus, UniProt P20272).
T2 construct: except whole brain (rather than cortex only) was used; from tissue; host or cells: whole brain P2 membranes
Put plainly: CB1 receptor binding assay, [3H]CP-55,940 displacement, whole brain P2 membranes. On the procedure: 1. CB1 Assay. [^3H] […] Displacement curves were generated by incubating drugs with 1 nM of [^3H] CP-55,940. The assays were performed in triplicate, and the results represent the combined data from three individual experiments.
CP-55,940 and all cannabinoid analogs were prepared by suspension in assay buffer from a 1 mg/mL ethanolic stock without evaporation of the ethanol (final concentration of no more than 0.4%). […] Displacement IC50 values were originally determined by unweighted least-squares linear regression of log concentration-percent displacement data and then converted to Ki values using the method of Cheng and Prusoff(Cheng, Y. C.; Prusoff, W. H. Biochem. Pharmacol. 1973, 22, 3099.)

Assay [2] deals with formalin model of inflammatory pain. The assay can be described thus: Formalin model of inflammatory pain. Type of assay: in vivo. The settings on record: male ICR mice. As to the method: One of the above CB2 selective agonists was chosen for testing in the formalin model of inflammatory pain in mice. Subjects consisted of male ICR mice (Harlan Labs) weighing between 20-25 g. The formalin test was carried out in an open Plexiglas cage, with a mirror placed under the floor to allow an unobstructed view of the paws. Mice were allowed to acclimate for 15 min in the test cage before formalin injection. Each animal was injected with 20 μl of 2.5% formalin in the intraplantar region of the right hindpaw. Mice were then observed 0-5 min (Phase 1) and 20-45 min (Phase 2) post-formalin, and the amount of time spent licking the injected paw was recorded. The drug was injected i.p. 30 min before formalin injection.

Molecules are shown by their SMILES. “Also recorded” adds a separate entry of the source. A value given as a limit tells only on which side of the number the result lay.

T2 sequence (P20272 whole entry): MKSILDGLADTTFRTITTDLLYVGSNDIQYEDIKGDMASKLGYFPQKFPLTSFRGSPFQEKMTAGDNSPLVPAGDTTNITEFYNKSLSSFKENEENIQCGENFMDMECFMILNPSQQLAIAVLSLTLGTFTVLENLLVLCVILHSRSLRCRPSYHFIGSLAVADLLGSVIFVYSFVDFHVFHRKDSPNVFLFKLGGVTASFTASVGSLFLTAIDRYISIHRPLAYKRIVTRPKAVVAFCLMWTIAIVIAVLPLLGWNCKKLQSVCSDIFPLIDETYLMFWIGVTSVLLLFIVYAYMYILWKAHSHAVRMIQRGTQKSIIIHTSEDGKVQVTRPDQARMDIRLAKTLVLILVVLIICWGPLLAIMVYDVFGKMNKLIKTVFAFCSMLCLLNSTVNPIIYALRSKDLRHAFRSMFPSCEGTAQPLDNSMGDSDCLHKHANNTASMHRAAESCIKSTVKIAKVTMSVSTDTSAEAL
T1 sequence (P34972 whole entry): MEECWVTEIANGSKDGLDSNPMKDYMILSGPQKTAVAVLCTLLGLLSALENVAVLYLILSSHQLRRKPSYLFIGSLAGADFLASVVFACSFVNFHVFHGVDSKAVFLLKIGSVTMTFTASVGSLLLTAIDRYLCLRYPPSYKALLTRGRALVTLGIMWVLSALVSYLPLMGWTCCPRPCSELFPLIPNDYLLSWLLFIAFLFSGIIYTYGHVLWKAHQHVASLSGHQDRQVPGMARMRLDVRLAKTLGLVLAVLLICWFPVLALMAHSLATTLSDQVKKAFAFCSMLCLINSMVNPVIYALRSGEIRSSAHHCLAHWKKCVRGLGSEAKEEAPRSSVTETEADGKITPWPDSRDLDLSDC
Chain of CB2 receptor (P34972 whole entry): as above

As usually defined, the Ki is a dissociation constant, usually derived from enzyme kinetics or from competition with a known ligand. For `CCCCCCC(C)(C)c1ccc2c(c1)OC(C)(C)C1CC=C(C)CC21` (stereo not drawn) [1-deoxy-Δ^8-THC-DMH], the Ki at CB2 receptor is 3 nM.

With `CCC[C@H](C)Cc1ccc2c(c1)OC(C)(C)[C@@H]1CC=C(C)C[C@@H]21` [Compound 255, 1-Deoxy-3-(2′S-methylpentyl)-Δ^8-tetrahydrocannabinol], in assay [1], the inhibition constant (Ki) was determined as 24.3 ± 8.6 nM and the “Fold selectivity for CB2 over CB1” value is listed as 174 fold. The Ki on CB1 receptor is 4310 ± 649 nM.

Take `CCCCC(C)(C)c1cc(OC)c2c(c1)OC(C)(C)[C@@H]1CC[C@@H](O)C[C@@H]21` [Compound 299, 1-Deoxy-9β-hydroxy-1-methoxy-3-(1′,1′dimethylpentyl)-11-nor-hexahydrocannabinol]: the figures for the Ki (in assay [1]; at CB1 receptor) were 29.8 ± 1.77 nM and 415 ± 49.8 nM, respectively. In assay [1], the “Fold selectivity for CB2 over CB1” value was 14 fold.

On to `CCCC(C)(C)c1ccc2c(c1)OC(C)(C)[C@@H]1CC[C@@H](O)C[C@@H]21` [Compound 310, 1-Deoxy-9β-hydroxy-3-(1′,1′dimethylbutyl)-11-nor-hexahydrocannabinol], for which the inhibitory constant (Ki) in assay [1] was 36.1 ± 2.8 nM; at CB1 receptor it was 1060 nM. Also, the “Fold selectivity for CB2 over CB1” value in assay [1] amounted to 29 fold.

For `CCCCCC(C)(C)c1cc(OC)c2c(c1)OC(C)(C)[C@@H]1CC[C@H](O)C[C@@H]21` [Compound 349, 9α-Hydroxy-1-methoxy-3-(1′,1′dimethylhexyl)-11-nor-hexahydrocannabinol], the inhibition constant Ki in assay [1] amounted to 38 ± 4.3 nM; on CB1 receptor it was 375.7 ± 0.7 nM. For the same molecule, the “Fold selectivity for CB2 over CB1” value in assay [1] is 10 fold.

Consider `CCCCCC(C)(C)c1cc(OC)c2c(c1)OC(C)(C)[C@@H]1CC[C@@H](O)C[C@@H]21` [Compound 350, 9β-Hydroxy-1-methoxy-3-(1′,1′dimethylhexyl)-11-nor-hexahydrocannabinol], for which, in assay [1], the Ki was 11.8 ± 1.03 nM and the “Fold selectivity for CB2 over CB1” value worked out at 33 fold. Further, the “pain response (time spent licking injected paw)” value in assay [2] (20 mg/kg i.p. 30 min before formalin, listed as JWH-350) is “completely inhibited pain response; also recorded: completely eliminating the pain response”. The “nociception, dose dependence” value in assay [2] (i.p. 30 min before formalin) is recorded as “inhibits nociception in a dose-dependent manner”. At CB1 receptor, this molecule registered an inhibitory constant (Ki) of 395 ± 19.8 nM.

As for `CC[C@H](C)Cc1ccc2c(c1)OC(C)(C)[C@@H]1CC=C(C)C[C@@H]21` [Compound 352, 1-Deoxy-3-(2′S-methylbutyl)-Δ^8-tetrahydrocannabinol], in assay [1], the Ki was 46.5 ± 2.16 nM and the “Fold selectivity for CB2 over CB1” value is 213 fold. The same molecule showed an inhibition constant (Ki) on CB1 receptor above 10000 nM.

As for `CC[C@@H](C)Cc1ccc2c(c1)OC(C)(C)[C@@H]1CC=C(C)C[C@@H]21` [Compound 353, 1-Deoxy-3-(2′R-methylbutyl)-Δ^8-tetrahydrocannabinol], in assay [1], affinity was put at a Ki of 31.3 ± 0.78 nM and the “Fold selectivity for CB2 over CB1” value was 48 fold. This molecule registered an inhibition constant (Ki) at CB1 receptor of 1493 ± 10 nM.

`CC[C@@H](C)Cc1cc(OC)c2c(c1)OC(C)(C)[C@@H]1CC=C(C)C[C@@H]21` [Compound 359, 1-Methoxy-3-(2′R-methylbutyl)-Δ^8-tetrahydrocannabinol]: in assay [1], the Ki worked out at 13.3 ± 0.15 nM and the “Fold selectivity for CB2 over CB1” value is recorded as 219 fold. The molecule also returned an inhibitory constant (Ki) on CB1 receptor of 2920 ± 450 nM.
